Experimental data published in patent publication US7517874B2 (priority 2007, dated 2009).
Read-outs that look alike come from different tables or passages of the source.

Key:
[1] = target: human CB1 receptor (hCB1) (Homo sapiens, UniProt P21554); experiment: cell-based; type: cell-based; settings: for +/− HCB1: agonist or inverse agonist at hCB1
Procedure, shortened: (§1)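 First, cells in IBMX-containing HEPES-buffered HBSS are raised to elevated cAMP with 2-8 μM NKH-477 for 30 min. Data are normalised to the forskolin and forskolin + 1 μM CP55,940 controls.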

rat CB2 receptor (rCB2) = target: T1, rat CB2 receptor (rCB2) (Rattus norvegicus, UniProt Q9QZN9); experiment: cell-based; type: cell-based; settings: for +/− RCB2: agonist or inverse agonist at rCB2
T1 sequence (Q9QZN9 1-360): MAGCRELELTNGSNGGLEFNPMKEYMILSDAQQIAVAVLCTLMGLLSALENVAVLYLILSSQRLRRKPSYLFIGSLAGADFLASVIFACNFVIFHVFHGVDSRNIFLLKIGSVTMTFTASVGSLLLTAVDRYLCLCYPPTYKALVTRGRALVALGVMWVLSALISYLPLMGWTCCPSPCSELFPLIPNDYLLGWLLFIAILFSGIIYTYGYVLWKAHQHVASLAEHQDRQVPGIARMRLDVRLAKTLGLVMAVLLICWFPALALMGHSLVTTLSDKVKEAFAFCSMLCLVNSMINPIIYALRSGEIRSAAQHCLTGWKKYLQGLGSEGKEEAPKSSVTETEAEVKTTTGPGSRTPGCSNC
Procedure, shortened: as §1

[2] = groups >100 nM-10 μM and >10 μM, cAMP, CHO-K1 hCB1, read-out: EC50 HCB1

Sequence of human CB1 receptor (hCB1) (P21554 whole entry): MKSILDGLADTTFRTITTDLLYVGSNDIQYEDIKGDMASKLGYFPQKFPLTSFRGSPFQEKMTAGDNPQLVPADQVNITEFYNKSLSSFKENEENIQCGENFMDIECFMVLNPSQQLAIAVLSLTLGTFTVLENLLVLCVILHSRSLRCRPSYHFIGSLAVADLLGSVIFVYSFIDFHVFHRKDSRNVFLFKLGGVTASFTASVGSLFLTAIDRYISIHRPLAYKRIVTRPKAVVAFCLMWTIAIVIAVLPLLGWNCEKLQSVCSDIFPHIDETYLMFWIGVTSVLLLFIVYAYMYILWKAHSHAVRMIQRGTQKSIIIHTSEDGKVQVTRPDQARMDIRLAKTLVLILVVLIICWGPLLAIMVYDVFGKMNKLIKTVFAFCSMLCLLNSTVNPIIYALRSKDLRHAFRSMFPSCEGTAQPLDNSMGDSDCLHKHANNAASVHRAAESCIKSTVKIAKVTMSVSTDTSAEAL

SMILES	EC50 [1] [nM]	+/− RCB2 (rat CB2 receptor (rCB2))	+/− HCB1 [1]	EC50 (rat CB2 receptor (rCB2)) [µM]	EC50 [1, 2] [nM]
CNC(=O)[C@@H](NC(=O)c1nc(CCC2CCCCC2)n2c1CN(C)CCC2)C(C)(C)C [Compound 493, (S)-3-(2-cyclohexylethyl)-N-(3,3-dimethyl-1-(methylamino)-1-oxobutan-2-yl)-8-methyl-6,7,8,9-tetrahydro-5H-imidazo[1,5-a][1,4]diazepine-1-carboxamide]	> 10000	−			
CNC(=O)[C@@H](NC(=O)c1nc(CCCC2CCCC2)n2c1CN(C)CCC2)C(C)(C)C [Compound 494, (S)-3-(3-cyclopentylpropyl)-N-(3,3-dimethyl-1-(methylamino)-1-oxobutan-2-yl)-8-methyl-6,7,8,9-tetrahydro-5H-imidazo[1,5-a][1,4]diazepine-1-carboxamide]	> 10000	−			
CNC(=O)[C@@H](NC(=O)c1nc(CCc2ccsc2)n2c1CN(C)CCC2)C(C)(C)C [Compound 495, (S)-N-(3,3-dimethyl-1-(methylamino)-1-oxobutan-2-yl)-8-methyl-3-(2-(thiophen-3-yl)ethyl)-6,7,8,9-tetrahydro-5H-imidazo[1,5-a][1,4]diazepine-1-carboxamide]	> 10000	+			
CNC(=O)[C@@H](NC(=O)c1nc(C(C)C)n2c1CN(C)CCC2)C(C)(C)C [Compound 496, (S)-N-(3,3-dimethyl-1-(methylamino)-1-oxobutan-2-yl)-3-isopropyl-8-methyl-6,7,8,9-tetrahydro-5H-imidazo[1,5-a][1,4]diazepine-1-carboxamide]	> 10000	+			
CNC(=O)[C@@H](NC(=O)c1nc(C2CCCCCC2)n2c1CN(C)CCC2)C(C)(C)C [Compound 498, (S)-3-cycloheptyl-N-(3,3-dimethyl-1-(methylamino)-1-oxobutan-2-yl)-8-methyl-6,7,8,9-tetrahydro-5H-imidazo[1,5-a][1,4]diazepine-1-carboxamide]		+	+		
CNC(=O)[C@@H](NC(=O)c1nc(C2CCC(C)CC2)n2c1CN(C)CCC2)C(C)(C)C (stereo partly drawn) [Compound 499, (S)-N-(3,3-dimethyl-1-(methylamino)-1-oxobutan-2-yl)-8-methyl-3-(4-methylcyclohexyl)-6,7,8,9-tetrahydro-5H-imidazo[1,5-a][1,4]diazepine-1-carboxamide]	> 10000	+			
CNC(=O)[C@@H](NC(=O)c1nc(CCCN2CCOCC2)n2c1CN(C)CCC2)C(C)(C)C [Compound 500, (S)-N-(3,3-dimethyl-1-(methylamino)-1-oxobutan-2-yl)-8-methyl-3-(3-morpholinopropyl)-6,7,8,9-tetrahydro-5H-imidazo[1,5-a][1,4]diazepine-1-carboxamide]	> 10000			> 10	
CNC(=O)[C@@H](NC(=O)c1nc(CCCN2CCCCC2)n2c1CN(C)CCC2)C(C)(C)C [Compound 501, (S)-N-(3,3-dimethyl-1-(methylamino)-1-oxobutan-2-yl)-8-methyl-3-(3-(piperidin-1-yl)propyl)-6,7,8,9-tetrahydro-5H-imidazo[1,5-a][1,4]diazepine-1-carboxamide]	> 10000	+			
CNC(=O)[C@@H](NC(=O)c1nc(CCCN2CCCC2)n2c1CN(C)CCC2)C(C)(C)C [Compound 502, (S)-N-(3,3-dimethyl-1-(methylamino)-1-oxobutan-2-yl)-8-methyl-3-(3-(pyrrolidin-1-yl)propyl)-6,7,8,9-tetrahydro-5H-imidazo[1,5-a][1,4]diazepine-1-carboxamide]	> 10000	+			
CNC(=O)[C@@H](NC(=O)c1nc(C2CCNCC2)n2c1CN(C)CCC2)C(C)(C)C [Compound 503]		+	+		
CNC(=O)[C@@H](NC(=O)c1nc(C2CCCCO2)n2c1CN(C)CCC2)C(C)(C)C (stereo partly drawn) [Compound 504, N-((S)-3,3-dimethyl-1-(methylamino)-1-oxobutan-2-yl)-8-methyl-3-(tetrahydro-2H-pyran-2-yl)-6,7,8,9-tetrahydro-5H-imidazo[1,5-a][1,4]diazepine-1-carboxamide]	> 10000	+			
CNC(=O)[C@@H](NC(=O)c1nc(C(C)C(F)(F)F)n2c1CN(C)CCC2)C(C)(C)C (stereo partly drawn) [Compound 505, N-((S)-3,3-dimethyl-1-(methylamino)-1-oxobutan-2-yl)-8-methyl-3-(1,1,1-trifluoropropan-2-yl)-6,7,8,9-tetrahydro-5H-imidazo[1,5-a][1,4]diazepine-1-carboxamide]		+	+		
CNC(=O)[C@@H](NC(=O)c1nc(C(C)c2ccccc2)n2c1CN(C)CCC2)C(C)(C)C (stereo partly drawn) [Compound 506, N-((S)-3,3-dimethyl-1-(methylamino)-1-oxobutan-2-yl)-8-methyl-3-(1-phenylethyl)-6,7,8,9-tetrahydro-5H-imidazo[1,5-a][1,4]diazepine-1-carboxamide]		+	+		
CNC(=O)[C@@H](NC(=O)c1nc(C(C)C(C)C)n2c1CN(C)CCC2)C(C)(C)C (stereo partly drawn) [Compound 507, N-((S)-3,3-dimethyl-1-(methylamino)-1-oxobutan-2-yl)-8-methyl-3-(3-methylbutan-2-yl)-6,7,8,9-tetrahydro-5H-imidazo[1,5-a][1,4]diazepine-1-carboxamide]		+	+		
CNC(=O)[C@@H](NC(=O)c1nc(CCCCO)n2c1CN(C)CCC2)C(C)(C)C [Compound 508, (S)-N-(3,3-dimethyl-1-(methylamino)-1-oxobutan-2-yl)-3-(4-hydroxybutyl)-8-methyl-6,7,8,9-tetrahydro-5H-imidazo[1,5-a][1,4]diazepine-1-carboxamide]			+	> 10	
CNC(=O)[C@@H](NC(=O)c1nc(/C=C/CN2CCOCC2)n2c1CN(C)CCC2)C(C)(C)C [Compound 509, (S,E)-N-(3,3-dimethyl-1-(methylamino)-1-oxobutan-2-yl)-8-methyl-3-(3-morpholinoprop-1-enyl)-6,7,8,9-tetrahydro-5H-imidazo[1,5-a][1,4]diazepine-1-carboxamide]	> 10000			> 10	
CNC(=O)[C@@H](NC(=O)c1nc(/C=C/CN2CCCCC2)n2c1CN(C)CCC2)C(C)(C)C [Compound 510, (S,E)-N-(3,3-dimethyl-1-(methylamino)-1-oxobutan-2-yl)-8-methyl-3-(3-(piperidin-1-yl)prop-1-enyl)-6,7,8,9-tetrahydro-5H-imidazo[1,5-a][1,4]diazepine-1-carboxamide]	> 10000	+			
CNC(=O)[C@@H](NC(=O)c1nc(/C=C/CN2CCCC2)n2c1CN(C)CCC2)C(C)(C)C [Compound 511, (S,E)-N-(3,3-dimethyl-1-(methylamino)-1-oxobutan-2-yl)-8-methyl-3-(3-(pyrrolidin-1-yl)prop-1-enyl)-6,7,8,9-tetrahydro-5H-imidazo[1,5-a][1,4]diazepine-1-carboxamide]	> 10000	+			
CCN(CC)C/C=C/c1nc(C(=O)N[C@H](C(=O)NC)C(C)(C)C)c2n1CCCN(C)C2 [Compound 512, (S,E)-3-(3-(diethylamino)prop-1-enyl)-N-(3,3-dimethyl-1-(methylamino)-1-oxobutan-2-yl)-8-methyl-6,7,8,9-tetrahydro-5H-imidazo[1,5-a][1,4]diazepine-1-carboxamide]	> 10000			> 10	
CNC(=O)[C@@H](NC(=O)c1nc(/C=C/CN(C)C)n2c1CN(C)CCC2)C(C)(C)C [Compound 513, (S,E)-N-(3,3-dimethyl-1-(methylamino)-1-oxobutan-2-yl)-3-(3-(dimethylamino)prop-1-enyl)-8-methyl-6,7,8,9-tetrahydro-5H-imidazo[1,5-a][1,4]diazepine-1-carboxamide]	> 10000	−			
CNC(=O)[C@@H](NC(=O)c1nc(/C=C/CCO)n2c1CN(C)CCC2)C(C)(C)C [Compound 514, (S,E)-N-(3,3-dimethyl-1-(methylamino)-1-oxobutan-2-yl)-3-(4-hydroxybut-1-enyl)-8-methyl-6,7,8,9-tetrahydro-5H-imidazo[1,5-a][1,4]diazepine-1-carboxamide]		+	+		
CC(C)(C)OC(=O)N1CCCn2c(-c3ccccc3)nc(C(=O)N[C@H](C(=O)O)C(C)(C)C)c2C1 [Compound 515, (S)-2-(8-(tert-butoxycarbonyl)-3-phenyl-6,7,8,9-tetrahydro-5H-imidazo[1,5-a][1,4]diazepine-1-carboxamido)-3,3-dimethylbutanoic acid]		−			> 10000
Cc1ccc(-c2nc(C(=O)N[C@H](C(=O)O)C(C)(C)C)c3n2CCCN(C(=O)OC(C)(C)C)C3)c(F)c1 [Compound 516, (S)-2-(8-(tert-butoxycarbonyl)-3-(2-fluoro-4-methylphenyl)-6,7,8,9-tetrahydro-5H-imidazo[1,5-a][1,4]diazepine-1-carboxamido)-3,3-dimethylbutanoic acid]	> 10000	−			
Cc1noc([C@@H](NC(=O)c2nc(-c3ccccc3)n3c2CN(C(=O)OC(C)(C)C)CCC3)C(C)(C)C)n1 [Compound 517, (S)-tert-butyl 1-(2,2-dimethyl-1-(3-methyl-1,2,4-oxadiazol-5-yl)propylcarbamoyl)-3-phenyl-6,7-dihydro-5H-imidazo[1,5-a][1,4]diazepine-8(9H)-carboxylate]		−			> 10000
